The record followed here is patent US7981903B2, “2-[2-{phenylamino}-1H-pyrrolo[2,3-D]pyrimidin-4-yl)amino] benzamide derivatives as IGF-1R inhibitors for the treatment of cancer” (GlaxoSmithKline LLC, priority 2007, dated 2011).

Some results are limits rather than exact numbers.

One experiment deals with T1, human IGF1R (hIGF1R) (Homo sapiens, UniProt P08069).
T1 construct: containing amino acid residues 957-1367 of human IGF1R; made in house; host or cells: Sf9 cells (baculovirus)
In words: TR-FRET kinase assay of purified hIGF1R. The experiment is classed as biochemical. The settings on record: activated hIGF1R 0.5 nM, 10 μM ATP, values given as pIC50 category, read-out: IGF-1R pIC50 (converted).

The target of another experiment is T2, human IR (hIR) (Homo sapiens, UniProt P06213).
T2 construct: containing amino acid residues 979-1382 of human IR; made in house; host or cells: Sf9 cells (baculovirus), same process as hIGF1R
T2 sequence (P06213 979-1382): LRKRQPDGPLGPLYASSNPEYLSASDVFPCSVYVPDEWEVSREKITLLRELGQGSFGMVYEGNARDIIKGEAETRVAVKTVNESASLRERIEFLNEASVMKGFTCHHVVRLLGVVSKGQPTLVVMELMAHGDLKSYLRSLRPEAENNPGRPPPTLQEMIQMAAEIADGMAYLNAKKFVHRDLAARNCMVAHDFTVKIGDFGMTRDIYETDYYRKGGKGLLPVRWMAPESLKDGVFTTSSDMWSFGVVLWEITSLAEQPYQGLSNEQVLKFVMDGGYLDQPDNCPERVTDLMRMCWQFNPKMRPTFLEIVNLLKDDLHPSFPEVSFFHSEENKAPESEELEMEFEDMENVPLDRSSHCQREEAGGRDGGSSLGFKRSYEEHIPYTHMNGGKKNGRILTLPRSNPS
The experiment in a line: TR-FRET kinase assay of purified hIR. The format is biochemical. The settings on record: activated hIR 0.5 nM, 10 μM ATP, values given as pIC50 category. Background: TR-FRET usually uses a lanthanide donor and a delayed reading to cut background.

A further experiment deals with ALK (Homo sapiens, UniProt Q9UM73). In words: ALK enzyme assay (HTRF). The format is biochemical. The settings on record: 0.25 nM ALK, 15.0 μM ATP, values given as pIC50 category. An outline of the steps:
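Isolated ALK phosphorylates a biotinylated tyrosine peptide, 120 min at 20° C; anti-phosphotyrosine Eu-cryptate/streptavidin-XL665 HTRF read after 60 min with EDTA-containing detection mix.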

The target in experiment [1] is T3, NIH-3T3 cells overexpressing human IGF-1R (Homo sapiens, UniProt P08069).
T3 construct: expressed in transfected cells; host or cells: NIH-3T3 (mouse fibroblasts)
T3 sequence (P08069 31-1367): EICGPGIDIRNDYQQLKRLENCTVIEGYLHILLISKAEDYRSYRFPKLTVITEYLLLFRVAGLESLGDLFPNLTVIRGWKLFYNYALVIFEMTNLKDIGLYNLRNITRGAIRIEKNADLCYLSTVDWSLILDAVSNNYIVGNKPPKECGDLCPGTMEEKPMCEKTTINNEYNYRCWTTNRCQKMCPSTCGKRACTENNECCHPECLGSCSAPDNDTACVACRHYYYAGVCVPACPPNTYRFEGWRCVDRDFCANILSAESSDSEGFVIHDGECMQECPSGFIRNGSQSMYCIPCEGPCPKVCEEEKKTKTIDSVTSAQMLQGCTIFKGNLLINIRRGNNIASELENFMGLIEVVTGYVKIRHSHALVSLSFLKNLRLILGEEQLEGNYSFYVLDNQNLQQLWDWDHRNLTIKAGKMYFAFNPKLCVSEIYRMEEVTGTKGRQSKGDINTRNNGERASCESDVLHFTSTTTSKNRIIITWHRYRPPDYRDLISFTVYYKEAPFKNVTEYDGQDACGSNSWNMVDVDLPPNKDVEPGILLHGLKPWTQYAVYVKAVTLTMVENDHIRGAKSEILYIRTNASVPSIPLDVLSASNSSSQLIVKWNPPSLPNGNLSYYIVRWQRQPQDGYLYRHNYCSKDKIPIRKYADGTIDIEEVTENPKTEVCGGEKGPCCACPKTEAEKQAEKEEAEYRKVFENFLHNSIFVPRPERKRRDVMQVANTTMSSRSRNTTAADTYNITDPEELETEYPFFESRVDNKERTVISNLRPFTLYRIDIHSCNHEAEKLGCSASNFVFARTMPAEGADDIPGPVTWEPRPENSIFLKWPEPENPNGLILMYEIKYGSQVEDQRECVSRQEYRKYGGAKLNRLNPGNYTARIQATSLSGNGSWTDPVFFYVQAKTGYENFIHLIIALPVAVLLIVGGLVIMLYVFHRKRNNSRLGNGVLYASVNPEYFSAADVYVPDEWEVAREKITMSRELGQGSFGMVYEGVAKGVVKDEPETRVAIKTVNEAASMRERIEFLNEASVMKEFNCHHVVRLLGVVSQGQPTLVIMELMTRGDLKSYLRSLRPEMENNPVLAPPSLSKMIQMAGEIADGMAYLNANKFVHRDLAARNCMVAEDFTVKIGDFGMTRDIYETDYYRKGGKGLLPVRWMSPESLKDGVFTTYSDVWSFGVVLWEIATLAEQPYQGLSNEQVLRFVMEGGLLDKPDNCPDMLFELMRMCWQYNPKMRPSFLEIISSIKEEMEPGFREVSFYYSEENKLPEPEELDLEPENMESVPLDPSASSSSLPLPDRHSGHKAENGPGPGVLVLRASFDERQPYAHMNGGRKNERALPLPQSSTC
The experiment in a line: IGF-1R cellular autophosphorylation (DELFIA). The format is cell-based. Here is the method: NIH-3T3 cells overexpressing human IGF-1R or IR were plated in 96-well plates (10,000 cells/well) in culture media containing 10% fetal bovine serum and incubated at 37° C. in a 5% CO2 incubator. Twenty four hours post-plating, cells were treated with different concentrations of test compounds ranging from 30 uM to 1.5 nM. Two hours after compound addition, cells were stimulated with either human IGF-1 (30 ng/ml) or insulin (3 ug/ml) for 15 minutes. Cell lysates are analyzed for phosphorylated receptors using dissociation enhanced lanthanide fluor-immuno assay (DELFIA) with anti-IGF-1R (MAB391, R&D Systems, Minneapolis, Minn.) or anti-IRβ (sc-711, Santa Cruz Biotechnology, Santa Cruz, Calif.) capture antibody and europium-labeled anti-pTyr antibody (Eu-N1 PT66, Perkin Elmer, Waltham, Mass.) for detection. The fluorescence signal for cells treated with compounds was expressed as percent relative to 100% stimulation (IGF-1 or insulin stimulated signal).

The subject of another experiment is Colo205. The experiment in a line: Inhibition of cell proliferation (CellTiter-Glo or InCell analyzer), Colo205. The experiment is classed as cell-based. The settings on record: Homo sapiens, COLO 205, 72 h / 3 days, values given as IC50 category. How it is done:
Cell proliferation was measured by either CellTiter-Glo (measures cellular ATP level as a surrogate for total cell number) or by InCell analyzer (counts number of nuclei as a measure of cell number).
For CellTiter-Glo assay, exponentially growing cell lines of different tumor origins, cultured in appropriate media containing 10% fetal bovine serum at 37° C. in a 5% CO2 incubator, were plated at low density (less than 2000cells/well) in 96-well plates. Twenty four hours post-plating, cells were treated with different concentrations of test compounds ranging from 30 uM to 1.5 nM. Several wells were left untreated as a control. Seventy two hours post-treatment, cell numbers were determined using 50-100 ul per well of CellTiter-Glo (Promega #G7573). Plates were incubated at 37° C. for 30 minutes and the chemiluminescent signal was read on the Victor V or Envison 2100 reader.
For InCell Analyser assay, various cell lines of different tumor origins were grown to 70-80% confluency in appropriate culture media containing 10% fetal bovine serum at 37° C. in a 5% CO2 incubator. On day −1, cells were seeded at 2 densities in 384-well plates and incubated at 37° C. overnight. Stock compound plates were prepared in advance which contained dimethyl sulfoxide (DMSO) alone and a 9-point half-log decreasing dose range of the compound in DMSO. The compound plates were stored at −80° C. and each plate was only thawed once and used. On day 0, the main assay plates received compound or DMSO via a sonic delivery system (ECHO). The highest final concentration of compound of the dose range in the culture plates was 10 uM. These plates were cultured at 37° C. for 3 days. […] On day 3, the compound treated plates were stained and fixed to measure proliferation, apoptosis, and mitotic index using an InCelL1000 analyser. A nuclear stain was used to identify cells in the wells. By counting the number of nuclei, the proliferation index of compound treated groups were calculated as a percentage relative to the DMSO control, which was set to 100%. The IC50 values were calculated using model 205 in ExcelFit.
IC50 (nM) values for compounds of select examples were categorized by relative inhibition of cell proliferation.
(Cellular ATP, detected with luciferase, serves as a proxy for viable cell number.)

T1 sequence (P08069 957-1367): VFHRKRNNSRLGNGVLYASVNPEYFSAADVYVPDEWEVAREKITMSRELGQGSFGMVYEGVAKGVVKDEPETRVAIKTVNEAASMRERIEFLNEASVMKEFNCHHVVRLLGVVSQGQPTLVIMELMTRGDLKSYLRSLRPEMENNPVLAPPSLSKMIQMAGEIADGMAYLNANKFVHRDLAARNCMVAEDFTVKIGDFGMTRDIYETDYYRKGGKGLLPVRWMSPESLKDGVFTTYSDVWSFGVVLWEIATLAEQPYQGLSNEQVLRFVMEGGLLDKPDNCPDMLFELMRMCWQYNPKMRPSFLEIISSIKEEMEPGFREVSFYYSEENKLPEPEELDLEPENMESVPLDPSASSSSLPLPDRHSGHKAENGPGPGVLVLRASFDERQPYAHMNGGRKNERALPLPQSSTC
ALK, sequence (Q9UM73 19-1620): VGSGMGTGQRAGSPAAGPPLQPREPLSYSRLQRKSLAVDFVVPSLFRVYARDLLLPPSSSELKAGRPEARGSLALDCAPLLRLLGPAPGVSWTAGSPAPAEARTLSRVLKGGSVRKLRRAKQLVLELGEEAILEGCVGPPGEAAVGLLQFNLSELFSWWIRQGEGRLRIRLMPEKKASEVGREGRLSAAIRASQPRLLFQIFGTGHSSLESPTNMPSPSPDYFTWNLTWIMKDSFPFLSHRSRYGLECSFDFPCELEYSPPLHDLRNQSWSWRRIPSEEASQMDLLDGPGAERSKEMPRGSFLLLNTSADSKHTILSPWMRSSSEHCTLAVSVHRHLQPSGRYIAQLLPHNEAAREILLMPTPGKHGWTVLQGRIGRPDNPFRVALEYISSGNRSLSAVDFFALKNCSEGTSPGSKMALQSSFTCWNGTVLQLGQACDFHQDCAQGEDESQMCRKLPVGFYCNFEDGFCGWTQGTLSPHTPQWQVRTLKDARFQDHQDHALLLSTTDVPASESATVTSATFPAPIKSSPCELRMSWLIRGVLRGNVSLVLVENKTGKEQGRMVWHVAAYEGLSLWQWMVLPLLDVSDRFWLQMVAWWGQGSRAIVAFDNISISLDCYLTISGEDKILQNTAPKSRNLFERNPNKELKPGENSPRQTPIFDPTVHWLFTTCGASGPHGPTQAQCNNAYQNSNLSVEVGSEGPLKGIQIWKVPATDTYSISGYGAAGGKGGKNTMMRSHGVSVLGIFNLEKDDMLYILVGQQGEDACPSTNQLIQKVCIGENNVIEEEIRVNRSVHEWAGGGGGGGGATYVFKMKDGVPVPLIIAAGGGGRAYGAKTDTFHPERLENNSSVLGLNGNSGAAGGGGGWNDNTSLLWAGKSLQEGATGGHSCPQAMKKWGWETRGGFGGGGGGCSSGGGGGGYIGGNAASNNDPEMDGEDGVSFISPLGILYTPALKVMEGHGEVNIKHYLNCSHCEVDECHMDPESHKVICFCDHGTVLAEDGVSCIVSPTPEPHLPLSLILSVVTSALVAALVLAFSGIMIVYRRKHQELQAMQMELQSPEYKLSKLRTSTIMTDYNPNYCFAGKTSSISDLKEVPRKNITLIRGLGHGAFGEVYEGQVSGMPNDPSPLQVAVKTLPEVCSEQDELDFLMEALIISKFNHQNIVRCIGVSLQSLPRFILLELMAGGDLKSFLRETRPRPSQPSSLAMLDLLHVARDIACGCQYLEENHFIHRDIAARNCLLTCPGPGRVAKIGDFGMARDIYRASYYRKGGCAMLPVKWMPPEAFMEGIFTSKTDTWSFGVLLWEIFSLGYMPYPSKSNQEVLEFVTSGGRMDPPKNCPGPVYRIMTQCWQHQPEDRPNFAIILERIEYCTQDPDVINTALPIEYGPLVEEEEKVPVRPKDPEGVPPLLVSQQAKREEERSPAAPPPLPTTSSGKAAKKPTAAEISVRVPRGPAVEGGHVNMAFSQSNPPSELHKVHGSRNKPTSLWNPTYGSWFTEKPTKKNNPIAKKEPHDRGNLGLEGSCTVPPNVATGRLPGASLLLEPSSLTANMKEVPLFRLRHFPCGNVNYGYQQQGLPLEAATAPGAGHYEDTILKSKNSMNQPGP

On to `COc1cc(N2CCN(C(C)C)CC2)ccc1Nc1nc(Nc2cc(F)c(F)cc2C(N)=O)c2cc[nH]c2n1` [Example 102, 4,5-difluoro-2-[(2-{[4-[4-(1-methylethyl)-1-piperazinyl]-2-(methyloxy)phenyl]amino}-1H-pyrrolo[2,3-d]pyrimidin-4-yl)amino]benzamide], for which the IC50 was 0.251 to 1 nM at human IGF1R (hIGF1R), 0.251 to 1 nM on human IR (hIR), 0.251 to 1 nM against ALK and less than 100 nM in experiment [1].
For `CNC(=O)c1ccccc1Nc1nc(Nc2ccc(N3CCN(C(C)C)CC3)cc2OC)nc2[nH]ccc12` [Example 25, N-methyl-2-[(2-{[4-[4-(1-methylethyl)-1-piperazinyl]-2-(methyloxy)phenyl]amino}-1H-pyrrolo[2,3-d]pyrimidin-4-yl)amino]benzamide], the IC50 was 1.26 to 3.98 nM on human IGF1R (hIGF1R), 1.26 to 3.98 nM at human IR (hIR), 0.251 to 1 nM against ALK and 100 to 500 nM in experiment [1].
Turning to `CCCN1CCC=C(c2ccc(Nc3nc(Nc4cc(F)ccc4C(=O)NCC(N)=O)c4cc[nH]c4n3)c(OC)c2)C1` [Example 67, N-(2-amino-2-oxoethyl)-4-fluoro-2-[(2-{[2-(methyloxy)-4-(1-propyl-1,2,5,6-tetrahydro-3-pyridinyl)phenyl]amino}-1H-pyrrolo[2,3-d]pyrimidin-4-yl)amino]benzamide], the IC50 on human IGF1R (hIGF1R) is 1.26 to 3.98 nM; at ALK, 1.26 to 3.98 nM; with Colo205, 250 to 1000 nM; in experiment [1], 100 to 500 nM.
Regarding `Cc1ccc(NC(=O)CN(C)C)cc1Nc1nc(Nc2cc(Cl)ccc2C(N)=O)c2cc[nH]c2n1` [Example 111], the IC50 is 1.26 to 3.98 nM on human IGF1R (hIGF1R), 1.26 to 3.98 nM against human IR (hIR), 5.01 to 200 nM on ALK and greater than 500 nM in experiment [1].
Turning to `CCCN1CCC=C(c2ccc(Nc3nc(Nc4ccc(OC)cc4C(N)=O)c4cc[nH]c4n3)c(OC)c2)C1` [Example 38, 5-(methyloxy)-2-[(2-{[2-(methyloxy)-4-(1-propyl-1,2,5,6-tetrahydro-3-pyridinyl)phenyl]amino}-1H-pyrrolo[2,3-d]pyrimidin-4-yl)amino]benzamide], the IC50 at human IGF1R (hIGF1R) was 1.26 to 3.98 nM; against human IR (hIR), 1.26 to 3.98 nM; against ALK it was 0.251 to 1 nM; in experiment [1], 100 to 500 nM.
Turning to `COc1cc(N2CCN(C(C)C)CC2)c(OC)cc1Nc1nc(Nc2cccc(F)c2C(N)=O)c2cc[nH]c2n1` [Example 47, 2-fluoro-6-[(2-{[4-[4-(1-methylethyl)-1-piperazinyl]-2,5-bis(methyloxy)phenyl]amino}-1H-pyrrolo[2,3-d]pyrimidin-4-yl)amino]benzamide], the IC50 on human IGF1R (hIGF1R) was 1.26 to 3.98 nM; against ALK it was 1.26 to 3.98 nM; in the experiment on Colo205, less than 250 nM; in experiment [1] it was less than 100 nM.
Regarding `COc1cc(C2=CCCN(C(C)C)C2)ccc1Nc1nc(Nc2ccccc2C(N)=O)c2cc[nH]c2n1` [Example 6, 2-[(2-{[4-[1-(1-methylethyl)-1,2,5,6-tetrahydro-3-pyridinyl]-2-(methyloxy)phenyl]amino}-1H-pyrrolo[2,3-d]pyrimidin-4-yl)amino]benzamide], the IC50 was 0.251 to 1 nM on human IGF1R (hIGF1R), 0.251 to 1 nM against human IR (hIR), 0.251 to 1 nM on ALK and less than 100 nM in experiment [1].
With `CNC(=O)c1ccccc1Nc1nc(Nc2ccc(C3CCCN(C)C3)cc2OC)nc2[nH]ccc12` (stereo not drawn) [Example 22, N-methyl-2-[(2-{[2-(methyloxy)-4-(1-methyl-3-piperidinyl)phenyl]amino}-1H-pyrrolo[2,3-d]pyrimidin-4-yl)amino]benzamide], the IC50 at human IGF1R (hIGF1R) is 1.26 to 3.98 nM; on human IR (hIR), 0.251 to 1 nM; against ALK, 0.251 to 1 nM; in experiment [1] it was 100 to 500 nM.
With `COc1cc(C2=CCCN(C)C2)ccc1Nc1nc(Nc2ccccc2C(N)=O)c2cc[nH]c2n1` [Example 4, 2-[(2-{[2-(methyloxy)-4-(1-methyl-1,2,5,6-tetrahydro-3-pyridinyl)phenyl]amino}-1H-pyrrolo[2,3-d]pyrimidin-4-yl)amino]benzamide], the IC50 was 0.251 to 1 nM at human IGF1R (hIGF1R), 0.251 to 1 nM against human IR (hIR), 0.251 to 1 nM against ALK and less than 100 nM in experiment [1].
Consider `CCCN1CCC=C(c2ccc(Nc3nc(Nc4ccc(C)cc4C(N)=O)c4cc[nH]c4n3)c(OC)c2)C1` [Example 33, 5-methyl-2-[(2-{[2-(methyloxy)-4-(1-propyl-1,2,5,6-tetrahydro-3-pyridinyl)phenyl]amino}-1H-pyrrolo[2,3-d]pyrimidin-4-yl)amino]benzamide], for which the IC50 at human IGF1R (hIGF1R) was 1.26 to 3.98 nM; against human IR (hIR) it was 1.26 to 3.98 nM; at ALK, 0.251 to 1 nM; in experiment [1] it was greater than 500 nM.
On to `CNC(=O)c1c(F)cccc1Nc1nc(Nc2cc3c(cc2OC)C[C@@H](C)N3C(=O)CN(C)C)nc2[nH]ccc12` [Example 250, 2-[(2-{[(2R)-1-(N,N-dimethylglycyl)-2-methyl-5-(methyloxy)-2,3-dihydro-1H-indol-6-yl]amino}-1H-pyrrolo[2,3-d]pyrimidin-4-yl)amino]-6-fluoro-N-methylbenzamide], for which the IC50 was 5.01 to 200 nM on human IGF1R (hIGF1R), 5.01 to 158 nM on human IR (hIR), 5.01 to 200 nM at ALK and greater than 500 nM in experiment [1].
`Cc1ccc(NC(=O)CN(C)C)cc1Nc1nc(Nc2ccccc2C(=O)NCCO)c2cc[nH]c2n1` [Example 26, 2-{[2-({5-[(N,N-dimethylglycyl)amino]-2-methylphenyl}amino)-1H-pyrrolo[2,3-d]pyrimidin-4-yl]amino}-N-(2-hydroxyethyl)benzamide]: the IC50 at human IGF1R (hIGF1R) is 5.01 to 200 nM; at human IR (hIR), 1.26 to 3.98 nM; against ALK, 5.01 to 200 nM; in experiment [1] it was greater than 500 nM.
Regarding `COc1cc(N2CCN(C(C)C)CC2)ccc1Nc1nc(Nc2cccc(C)c2C(N)=O)c2cc[nH]c2n1` [Example 31, 2-methyl-6-[(2-{[4-[4-(1-methylethyl)-1-piperazinyl]-2-(methyloxy)phenyl]amino}-1H-pyrrolo[2,3-d]pyrimidin-4-yl)amino]benzamide], the IC50 is 5.01 to 200 nM at human IGF1R (hIGF1R), 5.01 to 158 nM against human IR (hIR), 5.01 to 200 nM against ALK and greater than 500 nM in experiment [1].
`CCCN1CCC=C(c2ccc(Nc3nc(Nc4cc(F)c(F)cc4C(N)=O)c4cc[nH]c4n3)c(OC)c2)C1` [Example 95, 4,5-difluoro-2-[(2-{[2-(methyloxy)-4-(1-propyl-1,2,5,6-tetrahydro-3-pyridinyl)phenyl]amino}-1H-pyrrolo[2,3-d]pyrimidin-4-yl)amino]benzamide]: the IC50 at human IGF1R (hIGF1R) is 0.251 to 1 nM; against human IR (hIR), 0.251 to 1 nM; on ALK, 0.251 to 1 nM; in experiment [1], 100 to 500 nM.
Regarding `CN(C)CC(=O)Nc1ccc(OC(F)(F)F)c(Nc2nc(Nc3ccc(F)cc3C(N)=O)c3cc[nH]c3n2)c1` [Example 63, 2-{[2-({5-[(N,N-dimethylglycyl)amino]-2-[(trifluoromethyl)oxy]phenyl}amino)-1H-pyrrolo[2,3-d]pyrimidin-4-yl]amino}-5-fluorobenzamide], the IC50 is 0.251 to 1 nM at human IGF1R (hIGF1R), 0.251 to 1 nM at human IR (hIR), 1.26 to 3.98 nM on ALK and 100 to 500 nM in experiment [1].
